# The supplement of paper PMC4649846
# Key:
# MDA-MB-231 [1] = assay: drug sensitivity score (DSS); higher = more sensitive; extreme values may be limits of the assay; conditions: incubation time: 72 h
# In short: (§1)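 For the IC50 and drug sensitivity score, logistic dose–response curves were fitted in Dotmatics Studies. The score compares curve area with a reference area and is normalised by log of top response. Input data were CellTiter-Blue fluorescence readings from MDA-MB-231 cells, transfected a day earlier with BRCA1 or non-targeting control siRNA, that had spent 72 h at 37 °C and 5% CO2 at 4000 cells per well in 384-well plates with compounds at 5 concentrations.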
# MDA-MB-231 [2] = conditions: incubation time: 72 h
# In short: as §1
# [3] = siRNA: siControl (non-targeting)
IC50 of cell viability (MDA-MB-231 [2]; siRNA: siBRCA1) [nM],IC50 of cell viability (MDA-MB-231 [2]; [3]) [nM],Structure (SMILES),drug sensitivity score (MDA-MB-231 [1]; siRNA: siBRCA1),drug sensitivity score (MDA-MB-231 [1]; [3])
> 4170,4.32,CN(Cc1cnc2nc(N)nc(N)c2n1)c1ccc(C(=O)N[C@@H](CCC(=O)O)C(=O)O)cc1 [Methotrexate],0,9.3
> 4170,> 4170,COc1c2occc2cc2ccc(=O)oc12 [Methoxsalen],0,0
> 4170,> 4170,C[C@H]1C[C@@H]2[C@H]([C@@H](O)C[C@@]3(C)[C@H]2CC[C@]3(O)C(=O)CO)[C@@]2(C)C=CC(=O)C=C12 [Methylprednisolone],0,0
> 4170,> 4170,CO[C@@]12[C@H](COC(N)=O)C3=C(C(=O)C(C)=C(N)C3=O)N1C[C@@H]1N[C@@H]12 [Mitomycin C],0,0
> 4170,> 4170,Clc1ccc(C(c2ccccc2Cl)C(Cl)Cl)cc1 (stereo unspecified) [Mitotane],1.03,0
> 4170,> 4170,CC1(C)CNc2cc(NC(=O)c3cccnc3NCc3ccncc3)ccc21 [Motesanib],0,0
46.8,26.6,CCNC(=O)c1noc(-c2cc(C(C)C)c(O)cc2O)c1-c1ccc(CN2CCOCC2)cc1 [NVP-AUY922],19.6,23
8.83,10.2,Cn1c(=O)n(-c2ccc(C(C)(C)C#N)cc2)c2c3cc(-c4cnc5ccccc5c4)ccc3ncc21 [NVP-BEZ235 (Dactolisib)],16.9,16.6
> 4170,> 4170,Cc1c(C(=O)Nc2ccc(N3C[C@@H](C)O[C@@H](C)C3)nc2)cccc1-c1ccc(OC(F)(F)F)cc1 [NVP-LDE225],0,0
835,821,CC1(C)CCC(c2ccc(Cl)cc2)=C(CN2CCN(c3ccc(C(=O)NS(=O)(=O)c4ccc(N[C@H](CCN5CCOCC5)CSc5ccccc5)c(S(=O)(=O)C(F)(F)F)c4)cc3)CC2)C1 [Navitoclax],11,10.3
> 4170,> 4170,COc1nc(N)nc2c1ncn2[C@@H]1O[C@H](CO)[C@@H](O)[C@@H]1O [Nelarabine],0,0
> 4170,> 4170,Cc1cn(-c2cc(NC(=O)c3ccc(C)c(Nc4nccc(-c5cccnc5)n4)c3)cc(C(F)(F)F)c2)cn1 [Nilotinib],0,0
> 4170,> 4170,CC1(C)NC(=O)N(c2ccc([N+](=O)[O-])c(C(F)(F)F)c2)C1=O [Nilutamide],0,0
973,1080,COc1cccc2cc(-c3nc([C@H]4CC[C@H](C(=O)O)CC4)n4ncnc(N)c34)[nH]c12 [OSI-027],7.16,7.26
> 4170,> 4170,C[C@]1(O)C[C@@H](c2nc(-c3ccc4ccc(-c5ccccc5)nc4c3)c3c(N)nccn32)C1 [OSI-906],0,0
399,355,COC1=CC(c2cc3ccccc3[nH]2)=N/C1=C\c1[nH]c(C)cc1C [Obatoclax],15,15
> 4170,> 4170,O=C(c1cc(Cc2n[nH]c(=O)c3ccccc23)ccc1F)N1CCN(C(=O)C2CC2)CC1 [Olaparib],0,0
517,206,CO[C@@H]1[C@H](N(C)C(=O)c2ccccc2)C[C@H]2O[C@]1(C)n1c3ccccc3c3c4c(c5c6ccccc6n2c5c31)C(=O)NC4 [PKC412 (Midostaurin)],11,14.7
> 4170,> 4170,CCCS(=O)(=O)Nc1ccc(F)c(C(=O)c2c[nH]c3ncc(-c4ccc(Cl)cc4)cc23)c1F [PLX4032],0,0

IC50 of cell viability (MDA-MB-231 [2]; siRNA: siBRCA1) [nM],IC50 of cell viability (MDA-MB-231 [2]; [3]) [nM],Structure (SMILES),drug sensitivity score (MDA-MB-231 [1]; siRNA: siBRCA1),drug sensitivity score (MDA-MB-231 [1]; [3])
6.6,11.2,CC(=O)O[C@H]1C(=O)[C@@]2(C)[C@H]([C@H](OC(=O)c3ccccc3)[C@]3(O)C[C@H](OC(=O)[C@H](O)[C@@H](NC(=O)c4ccccc4)c4ccccc4)C(C)=C1C3(C)C)[C@]1(OC(C)=O)CO[C@@H]1C[C@@H]2O [Paclitaxel],29.8,27.2
31.7,27.5,Cc1[nH]c2ccccc2c1CCNCc1ccc(/C=C/C(=O)NO)cc1 [Panobinostat],28.7,29.6
> 4170,> 4170,Cc1ccc(Nc2nccc(N(C)c3ccc4c(C)n(C)nc4c3)n2)cc1S(N)(=O)=O [Pazopanib],0,0
> 4170,> 4170,OC[C@H]1O[C@@H](n2cnc3c2N=CNC[C@H]3O)C[C@@H]1O [Pentostatin],0,0
> 4170,> 4170,CC[C@@H]1C(=O)OC[C@@H]1Cc1cncn1C [Pilocarpine],0,0
> 4170,> 4170,O=C(CCBr)N1CCN(C(=O)CCBr)CC1 [Pipobroman],1.55,0
2080,2080,c1cc(CN2CCCNCCNCCCNCC2)ccc1CN1CCCNCCNCCCNCC1 [Plerixafor],0,0
67.9,56,CO[C@H](C(=O)[C@@H](O)[C@@H](C)O)[C@@H]1Cc2cc3cc(O[C@H]4C[C@@H](O[C@@H]5C[C@@H](O)[C@H](O)[C@@H](C)O5)[C@H](O)[C@@H](C)O4)c(C)c(O)c3c(O)c2C(=O)[C@H]1O[C@H]1C[C@@H](O[C@@H]2C[C@@H](O)[C@@H](O[C@@H]3C[C@](C)(O)[C@H](O)[C@@H](C)O3)[C@@H](C)O2)[C@H](O)[C@@H](C)O1 [Plicamycin],23.4,24.2
297,363,Cc1ccc(C(=O)Nc2ccc(CN3CCN(C)CC3)c(C(F)(F)F)c2)cc1C#Cc1cnc2cccnn12 [Ponatinib],16,15.4
> 4170,> 4170,C[C@]12C=CC(=O)C=C1CC[C@@H]1[C@@H]2[C@@H](O)C[C@@]2(C)[C@H]1CC[C@]2(O)C(=O)CO [Prednisolone],0,0
> 4170,> 4170,C[C@]12C=CC(=O)C=C1CC[C@@H]1[C@@H]2C(=O)C[C@@]2(C)[C@H]1CC[C@]2(O)C(=O)CO [Prednisone],0,0
> 4170,> 4170,CNNCc1ccc(C(=O)NC(C)C)cc1 [Procarbazine],0,0
92.2,146,COc1cc(F)c(F)c(Nc2ccc(I)cc2F)c1NS(=O)(=O)C1(C[C@H](O)CO)CC1 [RDEA119 (Refametinib)],14.9,12.3
> 4170,> 4170,O=C(c1ccc(OCCN2CCCCC2)cc1)c1c(-c2ccc(O)cc2)sc2cc(O)ccc12 [Raloxifene],0,0
0.904,< 0.833,CO[C@H]1C[C@@H]2CC[C@@H](C)[C@@](O)(O2)C(=O)C(=O)N2CCCC[C@H]2C(=O)O[C@H]([C@H](C)C[C@@H]2CC[C@@H](O)[C@H](OC)C2)CC(=O)[C@H](C)/C=C(\C)[C@@H](O)[C@@H](OC)C(=O)[C@H](C)C[C@H](C)/C=C/C=C/C=C/1C [Rapamycin (Sirolimus)],15.5,15.3
> 4170,> 4170,CC[C@H](CO)Nc1nc(NCc2ccccc2)c2ncn(C(C)C)c2n1 [Roscovitine],2.37,0
> 4170,> 4170,N#CC[C@H](C1CCCC1)n1cc(-c2ncnc3[nH]ccc23)cn1 [Ruxolitinib],0,0
929,713,N[C@@H](CSC(c1ccccc1)(c1ccccc1)c1ccccc1)C(=O)O [S-trityl-L-cysteine],15.2,15.6

Structure (SMILES),IC50 of cell viability (MDA-MB-231 [2]; siRNA: siBRCA1) [nM],IC50 of cell viability (MDA-MB-231 [2]; [3]) [nM],drug sensitivity score (MDA-MB-231 [1]; siRNA: siBRCA1),drug sensitivity score (MDA-MB-231 [1]; [3])
O=C1c2c(O)ccc(O)c2C(=O)c2c(NCCNCCO)ccc(NCCNCCO)c21 [Mitoxantrone],143,134,19.5,19.9
COCC1(CO)C(=O)C2CCN1CC2 (stereo unspecified) [Prima-1 Met],> 4170,> 4170,0,0
